Activity calls are given as the source filed them. The calls are words filed in the database; no cut-off is given here.
How the values were obtained:
A549 [1] = assay: Phototoxicity in human A549 cells assessed as cell viability at upto 20 uM pre-irradiated with 808nm laser 1.5 W/cm2 for 10 mins and measured after 12 hrs by MTT assay relative to control; type: functional; conditions: time 730 min, 12.17 h, up to 20 µM
A549 [2] = assay: Induction of singlet oxygen production in human A549 cells at 10 uM preincubated for 65 mins followed by light irradiation with 808nm laser 1.5 W/cm2 for 10 mins by DCF-DA staining based confocal microscopy analysis; type: functional, cell-based; conditions: time 75.0 min
A549 [3] = assay: Induction of apoptosis in human A549 cells under light irradiation with 808nm laser 1.5 W/cm2 for 10 mins by annexin V-FITC/propidium iodide staining based flow cytometry; type: functional, cell-based
[4] = Induction of singlet oxygen production of the compound assessed as decrease in DPBF absorbance under laser irradiation with 808nm laser 1.5 W/cm2 for upto 15 mins in presence of alkaline phosphatase; type: physicochemical; conditions: isolated protein, 0.25 h
A549 [5] = assay: Photosensitization activity against human A549 cells overexpressing ALP assessed as increase in fluorescence intensity at 10 uM measured upto 60 mins by confocal fluorescent imaging based analysis; type: functional, cell-based
A549 [6] = assay: Photosensitization activity against human A549 cells overexpressing ALP assessed as increase in fluorescence intensity at 10 uM pretreated with Na3VO4 for 1 hr followed by compound addition and measured upto 60 mins by confocal fluorescent imaging based analysis; type: functional, cell-based; conditions: time <= 60.0 […]
L02 = assay: Photosensitization activity against human L02 cells overexpressing ALP assessed as increase in fluorescence intensity at 10 uM pretreated with MgCl2 for 1 hr followed by compound addition by confocal fluorescent imaging based analysis; type: functional, cell-based
[7] = Cytotoxicity against human L02 cells assessed as survival rate measured after 12 hrs by MTT assay relative to control; type: toxicity, cell-based; conditions: read-out: Survival
A549 [8] = assay: Cytotoxicity against human A549 cells assessed as survival rate measured after 12 hrs relative to control; type: functional
HeLa [9] = assay: Cytotoxicity against human HeLa cells assessed as survival rate measured after 12 hrs relative to control; type: functional
A549 [10] = assay: Phototoxicity in human A549 cells assessed as decrease in survival rate at upto 10 uM pre-irradiated with 808nm laser 1.5 W/cm2 for 10 mins and measured after 12 hrs by MTT assay; type: functional, cell-based; conditions: time 730.0 min
HeLa [11] = assay: Phototoxicity in human HeLa cells assessed as decrease in survival rate at upto 10 uM pre-irradiated with 808nm laser 1.5 W/cm2 for 10 mins and measured after 12 hrs by MTT assay; type: functional, cell-based; conditions: time 730.0 min
A549 [12] = assay: Phototoxicity in human A549 cells assessed as decrease in survival rate at 10 uM pre-irradiated with 808nm laser 1.5 W/cm2 for 10 mins and measured after 12 hrs by MTT assay relative to control; type: functional; conditions: A549, light or radiation study, 12.17 h, time 730 min, read-out: Survival
HeLa [13] = assay: Phototoxicity in human HeLa cells assessed as decrease in survival rate at 10 uM pre-irradiated with 808nm laser 1.5 W/cm2 for 10 mins and measured after 12 hrs by MTT assay relative to control; type: functional; conditions: light or radiation study, 12.17 h, time 730 min, read-out: Survival
A549 [14] = assay: Induction of singlet oxygen production in human A549 cells assessed as increase in fluorescent signal at 10 uM preincubated for 65 mins followed by light irradiation with 808nm laser 1.5 W/cm2 for 10 mins in presence of Na3VO4 by DCF-DA staining based confocal microscopy analysis; type: functional, cell-based; conditions: time 75.0 min
A549 [15] = assay: Phototoxicity in human A549 cells assessed as reduction in cell viability at 10 uM preincubated for 1 hr followed by light irradiation with 808nm laser 1.5 W/cm2 for 10 mins and measured after 4 hrs in presence of Na3VO4 by Live/Dead dye staining assay; type: functional, cell-based; conditions: time 310.0 min
A549 [16] = assay: Antimigratory activity against human A549 cells measured upto 18 hrs by wound healing assay; type: functional, cell-based
A549 [17] = assay: Antitumor activity against human A549 cells xenografted in BALB/c mouse model assessed as decrease in fluorescence signal at 300 uM, iv measured upto 120 mins; type: functional, organism-based
A549 [18] = assay: Antitumor activity against human A549 cells xenografted in BALB/c mouse model assessed as reduction in fluorescence in heart at 300 uM, iv measured after 120 mins; type: functional, organism-based
A549 [19] = assay: Antitumor activity against human A549 cells xenografted in BALB/c mouse model assessed as reduction in fluorescence in liver at 300 uM, iv measured after 120 mins; type: functional, organism-based
A549 [20] = assay: Antitumor activity against human A549 cells xenografted in BALB/c mouse model assessed as reduction in fluorescence in spleen at 300 uM, iv measured after 120 mins; type: functional, organism-based
A549 [21] = assay: Antitumor activity against human A549 cells xenografted in BALB/c mouse model assessed as reduction in fluorescence in kidney at 300 uM, iv measured after 120 mins; type: functional, organism-based
A549 [22] = assay: Antitumor activity against human A549 cells xenografted in BALB/c mouse model assessed as reduction in fluorescence in lung at 300 uM, iv measured after 120 mins; type: functional, organism-based
A549 [23] = assay: Antitumor activity against human A549 cells xenografted in BALB/c mouse model assessed as inhibition of tumor growth at 300 uM, iv pre-irradiated with 808nm laser 1.5 W/cm2 for 10 mins and measured daily for 14 days; type: functional, organism-based; conditions: time 14.0 day
[24] = Toxicity in BALB/c mouse assessed as effect on heart at 300 uM, iv pre-irradiated with 808nm laser 1.5 W/cm2 for 10 mins and measured after 14 days by H and E staining based analysis; type: organism-based; conditions: in vivo, 336 h, time 14 day
[25] = Toxicity in BALB/c mouse assessed as effect on liver at 300 uM, iv pre-irradiated with 808nm laser 1.5 W/cm2 for 10 mins and measured after 14 days by H and E staining based analysis; type: organism-based; conditions: in vivo, 336 h, time 14 day
[26] = Toxicity in BALB/c mouse assessed as effect on spleen at 300 uM, iv pre-irradiated with 808nm laser 1.5 W/cm2 for 10 mins and measured after 14 days by H and E staining based analysis; type: organism-based; conditions: in vivo, 336 h, time 14 day
[27] = Toxicity in BALB/c mouse assessed as effect on lung at 300 uM, iv pre-irradiated with 808nm laser 1.5 W/cm2 for 10 mins and measured after 14 days by H and E staining based analysis; type: organism-based; conditions: in vivo, 336 h, time 14 day
[28] = Toxicity in BALB/c mouse assessed as effect on kidney at 300 uM, iv pre-irradiated with 808nm laser 1.5 W/cm2 for 10 mins and measured after 14 days by H and E staining based analysis; type: organism-based; conditions: in vivo, 336 h, time 14 day
[29] = Toxicity in BALB/c mouse assessed as effect on tumor at 300 uM, iv pre-irradiated with 808nm laser 1.5 W/cm2 for 10 mins and measured after 14 days by H and E staining based analysis; type: organism-based; conditions: in vivo, 336 h, time 14 day
[30] = Toxicity in BALB/c mouse assessed as effect on body weight loss at 300 uM, iv pre-irradiated with 808nm laser 1.5 W/cm2 for 10 mins and measured after 14 days by H and E staining based analysis; type: organism-based; conditions: in vivo, 336 h, time 14 day
A549 [31] = assay: Phototoxicity in human A549 cells assessed as cell viability at 10 uM pre-irradiated with 808nm laser 1.5 W/cm2 for 10 mins and measured after 12 hrs by MTT assay relative to control; type: functional; conditions: A549, light or radiation study, 12.17 h, time 730 min, read-out: Activity
A549 [32] = assay: Phototoxicity in human A549 cells assessed as cell viability at 20 uM pre-irradiated with 808nm laser 1.5 W/cm2 for 10 mins and measured after 12 hrs by MTT assay relative to control; type: functional; conditions: A549, light or radiation study, 12.17 h, time 730 min, read-out: Activity
A549 [33] = assay: Phototoxicity in human A549 cells assessed as reduction in cell viability at upto 20 uM preincubated for 1 hr followed by light irradiation with 808nm laser 1.5 W/cm2 for 10 mins and measured after 4 hrs by Live/Dead dye staining assay; type: functional, cell-based; conditions: time 310.0 min

SMILES: CC[N+]1=C(/C=C/C2=C3Oc4cc(O)ccc4C=C3CCC2)C(C)(C)c2ccccc21.[I-]
- Activity (A549 [1]): >85%

SMILES: CC[N+]1=C(/C=C/C2=C3Oc4cc(O)c(Br)cc4C=C3CCC2)C(C)(C)c2ccccc21.[I-]
- Activity (A549 [1]): >85%

SMILES: CC[N+]1=C(/C=C/C2=C3Oc4cc(OP(=O)(O)O)c(Br)cc4C=C3CCC2)C(C)(C)c2cc(Br)ccc21.[I-]
- Activity (A549 [2]): Active
- Activity (A549 [3]): Active
- Activity [4]: Active
- Activity (A549 [5]): Active
- Activity (A549 [6]): inactive
- Activity (L02): Active
- viability at 12 h [7]: > 85%
- Survival (A549 [8]): >85%
- Survival (HeLa [9]): >85%
- Activity (A549 [10]): Active
- Activity (HeLa [11]): Active
- viability at 10 µM (A549 [12]): < 40%
- viability at 10 µM (HeLa [13]): < 40%
- Activity (A549 [14]): inactive
- Activity (A549 [15]): Active
- Activity (A549 [16]): inactive
- Activity (A549 [17]): inactive
- Activity (A549 [18]): Active
- Activity (A549 [19]): Active
- Activity (A549 [20]): Active
- Activity (A549 [21]): Active
- Activity (A549 [22]): Active
- AC30 (A549 [23]): Active
- Activity [24]: Non-Toxic
- Activity [25]: Non-Toxic
- Activity [26]: Non-Toxic
- Activity [27]: Non-Toxic
- Activity [28]: Non-Toxic
- Activity [29]: Non-Toxic
- Activity [30]: Non-Toxic

SMILES: CC[N+]1=C(/C=C/C2=C3Oc4cc(O)ccc4C=C3CCC2)C(C)(C)c2cc(Br)ccc21.[I-]
- Activity (A549 [1]): >85%

SMILES: CC[N+]1=C(/C=C/C2=C3Oc4cc(O)c(Br)cc4C=C3CCC2)C(C)(C)c2cc(Br)ccc21
- viability at 10 µM (A549 [31]): 40%
- viability at 20 µM (A549 [32]): < 20%
- Activity (A549 [2]): Active
- Activity (A549 [33]): Active
- Activity (A549 [3]): Active

Reference: ChEMBL document CHEMBL5550207, “Alkaline Phosphatase Activated Near-Infrared Frequency Upconversion Photosensitizers for Tumor Photodynamic Therapy” (J Med Chem, 2024)
